According to US9758527B2, “Cyclohexene derivative, preparation method therefor, and pharmaceutical composition for preventing or treating metabolic diseases, containing same as active ingredient” (HYUNDAI PHARM CO., LTD., priority 2014, dated 2017):
Structures can show the parent of a compound that is named as a salt. Where two headings read alike, the source gives them in different places.

Target: T1, G protein-coupled receptor 119 (GPR-119) (Mesocricetus auratus, UniProt A0A1U8CD06)
T1 construct: hamster-derived β-cells containing G protein-coupled receptor 119 (GPR-119), HIT-T15 cells; host or cells: HIT-T15 (hamster pancreatic β-cells)
T1 sequence (A0A1U8CD06 1-334): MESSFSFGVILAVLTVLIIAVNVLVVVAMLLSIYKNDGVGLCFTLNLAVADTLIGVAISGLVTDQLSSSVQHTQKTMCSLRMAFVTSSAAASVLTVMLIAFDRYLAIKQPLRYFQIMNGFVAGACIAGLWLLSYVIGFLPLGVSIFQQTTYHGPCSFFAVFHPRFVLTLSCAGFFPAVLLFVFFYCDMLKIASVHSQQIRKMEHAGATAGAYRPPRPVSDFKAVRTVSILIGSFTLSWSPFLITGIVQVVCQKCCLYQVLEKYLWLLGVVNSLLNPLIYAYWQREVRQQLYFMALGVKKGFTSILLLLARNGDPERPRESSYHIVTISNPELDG
Assay: Evaluation of cAMP activity in HIT-T15 cells (HTRF cAMP dynamic kit)
Format: cell-based, hamster
Conditions: cAMP activation
Protocol: To check whether the cyclohexene derivatives according to the present invention activate cyclic adenosine monophosphate (cAMP), experiments were carried out, as follows.
The HIT-T15 cells were plated on a 96-well plate at 60,000 cells per well. On the next day of plating, the cells were treated with a varying concentration of each of the example compounds according to the present invention, and incubated at 37° C. for an hour. In this case, each of the treated compounds was used at six concentrations, ranging from […], to treat the cells.
The cyclic adenosine monophosphate (cAMP) activity was measured according to the manufacturer's instruction using a cAMP dynamic kit commercially available from Cis Bio Inc. (Bedford, Mass.). The cells were lysed, and a level of cAMP was determined by a competitive immunoassay using D2-labeled cAMP and a cryptate-labeled anti-cAMP antibody. Fluorescence was read in Flex Station (Molecular Devices). […] Unlabeled cAMP in the cell lysate competed with the D2-labeled cAMP against the cryptate-labeled antibody. Since a decrease in the measured intensity of the FRET signals represents a level of cAMP in the cells, the cAMP activities of the compounds are calculated as a change in FRET signals by adjusting an amount of dimethyl sulfoxide (DMSO).

[1] = EC50 (nM), 1 h at 37° C., six concentrations
[2] = 1 h at 37° C., six concentrations, read-out: EC50

SMILES | EC50 [1] [nM] | EC50 (EC50 value) [nM] | EC50 [2] [nM] | EC50 (read-out: EC50 value) [nM]
CCc1cnc(N2CCC(COc3ccc(C4=CCC(C(=O)N5CCC6(CC5)OCCO6)CC4)cc3)CC2)nc1 (stereo not shown) [Example 229, (4-(4-((1-(5-ethylpyrimidin-2-yl)piperidin-4-yl)methoxy)phenyl)cyclohex-3-enyl)(1,4-dioxa-8-azaspiro[4.5]decan-8-yl)methanone] | 11 | ≤ 50 |  | 
CC(C)(C)OC(=O)N1CCC(COc2ccc(C3=CCC(C(=O)NC[C@@H](O)CO)CC3)nc2)CC1 (stereo partly drawn) [Example 10, tert-butyl 4-((6-(4-((R)-2,3-dihydroxypropylcarbamoyl)cyclohex-1-enyl)pyridin-3-yloxy)methyl)piperidine-1-carboxylate] |  |  | 500 | 
CC(C)(C)OC(=O)N1CCC(COc2ccc(C3=CCC(C(=O)NCCF)CC3)c(F)c2)CC1 (stereo not shown) [Example 138, tert-butyl 4-((3-fluoro-4-(4-(2-fluoroethylcarbamoyl)cyclohex-1-enyl)phenoxy)methyl)piperidine-1-carboxylate] |  |  | 100 | 
CCc1cnc(N2CCC(COc3ccc(C4=CCC(C(=O)N5CCC[C@H]5C#N)CC4)cc3)CC2)nc1 (stereo partly drawn) [Example 106, (2S)-1-(4-(4-((1-(5-ethylpyrimidin-2-yl)piperidin-4-yl)methoxy)phenyl)cyclohex-3-enecarbonyl)pyrrolidine-2-carbonitrile] |  |  | 22 | ≤ 50
CC(C)c1noc(N2CCC(COc3ccc(C4=CCC(C(=O)NC[C@H](C)O)CC4)nc3)CC2)n1 (stereo partly drawn) [Example 39, N-((S)-2-hydroxypropyl)-4-(5-((1-(3-isopropyl-1,2,4-oxadiazol-5-yl)piperidin-4-yl)methoxy)pyridin-2-yl)cyclohex-3-enecarboxamide] |  |  | 350 | 
CC(C)c1noc(N2CCC(COc3ccc(C4=CCC(C(=O)NCCO)CC4)cc3)CC2)n1 (stereo not shown) [Example 31, N-(2-hydroxyethyl)-4-(4-((1-(3-isopropyl-1,2,4-oxadiazol-5-yl)piperidin-4-yl)methoxy)phenyl)cyclohex-3-enecarboxamide] |  |  | 260 | 
CC(C)(C)OC(=O)N1CCC(COc2ccc(C3=CCC(C(=O)NC4CCCC4)CC3)cc2)CC1 (stereo not shown) [Example 195, tert-butyl 4-((4-(4-(cyclopentylcarbamoyl)cyclohex-1-enyl)phenoxy)methyl)piperidine-1-carboxylate] |  |  | 28 | ≤ 50
CC(C)c1noc(N2CCC(COc3ccc(C4=CCC(C(=O)N5CC[C@H](F)C5)CC4)cc3F)CC2)n1 (stereo partly drawn) [Example 95, (4-(3-fluoro-4-((1-(3-isopropyl-1,2,4-oxadiazol-5-yl)piperidin-4-yl)methoxy)phenyl)cyclohex-3-enyl)((S)-3-fluoropyrrolidin-1-yl)methanone] |  |  | 16 | 
C[C@@H](O)CNC(=O)C1CC=C(c2ccc(OCC3CCN(C(=O)OC(C)(C)C)CC3)nc2)CC1 (stereo partly drawn) [Example 27, tert-butyl 4-((5-(4-((R)-2-hydroxypropylcarbamoyl)cyclohex-1-enyl)pyridin-2-yloxy)methyl)piperidine-1-carboxylate] |  |  | 310 | 
CC(C)(C)OC(=O)N1CCC(COc2ccc(C3=CCC(C(=O)NCC(F)(F)F)CC3)cn2)CC1 (stereo not shown) [Example 86, tert-butyl 4-((5-(4-(2,2,2-trifluoroethylcarbamoyl)cyclohex-1-enyl)pyridin-2-yloxy)methyl)piperidine-1-carboxylate] |  |  | 130 | 
CC(C)(C)OC(=O)N1CCC(COc2ccc(C3=CCC(C(=O)N4CC[C@@H](O)C4)CC3)cn2)CC1 (stereo partly drawn) [Example 43, tert-butyl 4-((5-(4-((R)-3-hydroxypyrrolidine-1-carbonyl)cyclohex-1-enyl)pyridin-2-yloxy)methyl)piperidine-1-carboxylate] |  |  | 85 | 
CCc1cnc(N2CCC(COc3ccc(C4=CCC(C(=O)NCC(F)(F)F)CC4)cc3)CC2)nc1 (stereo not shown) [Example 103, 4-(4-((1-(5-ethylpyrimidin-2-yl)piperidin-4-yl)methoxy)phenyl)-N-(2,2,2-trifluoroethyl)cyclohex-3-enecarboxamide] |  |  | 75 | 
CC(C)(C)OC(=O)N1CCC(COc2ccc(C3=CCC(C(=O)N4CC[C@@H](O)C4)CC3)cc2)CC1 (stereo partly drawn) [Example 5, tert-butyl 4-((4-(4-((R)-3-hydroxypyrrolidine-1-carbonyl)cyclohex-1-enyl)phenoxy)methyl)piperidine-1-carboxylate] |  |  | 29 | ≤ 50
CC(C)c1noc(N2CCC(COc3ccc(C4=CCC(C(=O)N(C)CCCO)CC4)cc3)CC2)n1 (stereo not shown) [Example 243, N-(3-hydroxypropyl)-4-(4-((1-(3-isopropyl-1,2,4-oxadiazol-5-yl)piperidin-4-yl)methoxy)phenyl)-N-methylcyclohex-3-enecarboxamide] |  |  | 30 | ≤ 50
CC(C)c1noc(N2CCC(COc3ccc(C4=CCC(C(=O)N(C)CCO)CC4)cc3)CC2)n1 (stereo not shown) [Example 34, N-(2-hydroxyethyl)-4-(4-((1-(3-isopropyl-1,2,4-oxadiazol-5-yl)piperidin-4-yl)methoxy)phenyl)-N-methylcyclohex-3-enecarboxamide] |  |  | 21 | ≤ 50
CC(C)(C)OC(=O)N1CCC(COc2ccc(C3=CCC(C(=O)N4CCC(=O)CC4)CC3)cc2)CC1 (stereo not shown) [Example 272, tert-butyl 4-((4-(4-(4-oxopiperidine-1-carbonyl)cyclohex-1-enyl)phenoxy)methyl)piperidine-1-carboxylate] | 33 | ≤ 50 |  | 
CC(C)c1noc(N2CCC(COc3ccc(C4=CCC(C(=O)NC[C@@H](C)O)CC4)nc3)CC2)n1 (stereo partly drawn) [Example 38, N-((R)-2-hydroxypropyl)-4-(5-((1-(3-isopropyl-1,2,4-oxadiazol-5-yl)piperidin-4-yl)methoxy)pyridin-2-yl)cyclohex-3-enecarboxamide] |  |  | 450 | 
CC(C)(C)OC(=O)N1CCC(COc2ccc(C3=CCC(C(=O)NC[C@H](O)CO)CC3)cn2)CC1 (stereo partly drawn) [Example 33, tert-butyl 4-((5-(4-((S)-2,3-dihydroxypropylcarbamoyl)cyclohex-1-enyl)pyridin-2-yloxy)methyl)piperidine-1-carboxylate] |  |  | 600 | 
CC(C)(C)OC(=O)N1CCC(COc2ccc(C3=CCC(C(=O)NCC(F)F)CC3)cc2)CC1 (stereo not shown) [Example 3, tert-butyl 4-((4-(4-(2,2-difluoroethylcarbamoyl)cyclohex-1-enyl)phenoxy)methyl)piperidine-1-carboxylate] |  |  | 34 | ≤ 50
CCc1cnc(N2CCC(COc3ccc(C4=CCC(C(=O)N5CCCC5)CC4)cc3)CC2)nc1 (stereo not shown) [Example 166, (4-(4-((1-(5-ethylpyrimidin-2-yl)piperidin-4-yl)methoxy)phenyl)cyclohex-3-enyl)(pyrrolidin-1-yl)methanone hydrochloride] |  |  | 22 | 
CCc1cnc(N2CCC(COc3ccc(C4=CCC(C(=O)N5C/C(=N\OC)C6(CN(C(=O)OC(C)(C)C)C6)C5)CC4)cc3)CC2)nc1 (stereo not shown) [Example 254, (Z)-tert-butyl 6-(4-(4-((1-(5-ethylpyrimidin-2-yl)piperidin-4-yl)methoxy)phenyl)cyclohex-3-enecarbonyl)-8-(methoxyimino)-2,6-diazaspiro[3.4]octane-2-carboxylate] |  |  | 10 | ≤ 50
CC(C)c1noc(N2CCC(COc3ccc(C4=CCC(C(=O)N5CCCC5)CC4)cc3)CC2)n1 (stereo not shown) [Example 52, (4-(4-((1-(3-isopropyl-1,2,4-oxadiazol-5-yl)piperidin-4-yl)methoxy)phenyl)cyclohex-3-enyl)(pyrrolidin-1-yl)methanone] |  |  | 55 | 
